Test results as given in patent US7807659B2, “Caspase inhibitors and uses thereof” (Vertex Pharmaceuticals Incorporated, priority 2001, dated 2010).
Square brackets hold non-standard residues; d marks the D form. Peptide text beside a SMILES is read from it. * marks the point of attachment. ξ: configuration not given here. Pip = O=C(O)[C@@H]1CCCCN1; ξD = NC(CC(=O)O)C(=O)O; Bz = O=C(c1ccccc1)*; CH2F = FC*

Columns and labels:
Type in all cases: cell-based
[1] = tested on: caspase-8-mediated apoptotic pathway (Fas induced apoptosis); test: Anti-Fas induced apoptosis assay
From the text: Cellular apoptosis can be induced by the binding of Fas ligand (FasL) to its receptor, CD95 (Fas). Conditions for an assay to measure the effect of compounds on the inhibition of the caspase-8-mediated apoptotic pathway can be found in WO01/42216.

TNF-alpha = test: Inhibition of TNF release from whole blood (LPS induced); details: Homo sapiens, LPS 5 ng/ml, overnight, ELISA
Method: Human blood was freshly drawn from healthy donors and collected in vacutainers. Blood was diluted 1:2 in PBS (tissue culture, pyrogen free) in a sterile bottle and inverted to mix well. Aliquots of 0.5 ml of blood mixture were dispensed into cluster tubes in 96 well format.
Dilutions of the test compounds were prepared in RPMI by taking 100 mM DMSO stocks of the compounds and diluting 1:10 in RPMI medium in eppendorfs, to give a 10 mM stock. 1:5 serial dilutions were prepared from the stock solutions.
LPS was kept at a frozen stock (−20 degrees C.) at 1 mg/ml in PBS and then diluted to 1:10 with RPMI medium and finally diluted in the medium again 1:350. 50 μl of each test compound (first concentration was 100 μM) were added to the blood samples and then stimulated with 10 μl LPS (final concentration in the well is 5 ng/ml). The contents were gently mixed using an 8 well multi-channel pipette and incubated at 37° C. over night. At the end of the incubation time, contents were gently mixed, then spun down at 1000×g for 5 mins at 20° C. The serum supernatants were transferred to a fresh plate without disturbing the RBCs and diluted 1:2 with the diluent RD6C.
TNF-alpha levels of supernatants were assayed using the R+D systems ELISA kit, using R+D systems protocol. Samples were read at 450 nm.

[2] = tested on: IL-1β secretion from peripheral blood mononuclear cells; test: Inhibition of IL-1β secretion from mixed population of peripheral blood mononuclear cells (PBMC); details: human PBMC, mature IL-1β in supernatant
From the text: Processing of pre-IL-1β by caspase-1 can be measured in cell culture using a variety of cell sources. Human PBMC obtained from healthy donors provides a mixed population of lymphocyte and mononuclear cells that produce a spectrum of interleukins and cytokines in response to many classes of physiological stimulators. The assay conditions used for inhibition of IL-1β secretion from mixed population of peripheral blood mononuclear cells can be found in WO01/42216.
The inhibitory potency of the compounds can be represented by an IC50 value, which is the concentration of inhibitor at which 50% of the mature IL-1β is detected in the supernatant as compared to the positive controls.

IC50 [1] [µM] | IC50 (TNF-alpha; exact value in brackets) [µM] | IC50 (TNF-alpha; stated as bound) [µM] | IC50 [2] [µM] | SMILES
< 0.05 |  |  |  | O=C(O)CC(NC(=O)[C@@H]1CCCCN1C(=O)c1ccccc1)C(=O)CF (stereo partly drawn) [Compound 3, [3S/R,(2S)]-5-Fluoro-4-oxo-3-[1-benzoyl-2-piperidinecarboxamido]-pentanoic acid] (Bz-[Pip]-[ξD]-CH2F)
 | 5.04 | < 6 | < 0.5 | O=C(O)CC(NC(=O)[C@@H]1CCCCN1C(=O)c1ccc(-c2cccc(C(F)(F)F)c2)o1)C(=O)CF (stereo partly drawn) [Compound 10, [3S/R,(2S)]-5-Fluoro-4-oxo-3-[1-[2-(3-trifluoromethyl-phenyl)-furan-4-carbonyl]-2-piperidinecarboxamido]-pentanoic acid]
